Assay results as given in patent US5393869A, “Parathyroid hormone derivatives” (Takeda Chemical Industries, Ltd., priority 1990, dated 1995).
Starred links: 1 amine or outer side, 2 acyl side, 3 side chain; linkers in the order of their positions; H or OH if unused. Non-standard residues stand in square brackets, D forms with d. Residues, ends and D or L forms follow the SMILES beside them. No end group written: not given here. X1 = O=C([C@H](Cc1c(C2SCCS2)[nH]c2ccccc12)N[*:1])[*:2]

These compounds were tested against T1, PTH receptor (Mus musculus, UniProt P41593) (assay: cAMP production by PTH (1-34) analogues in MC3T3-EI osteoblast-like cells). Settings: cAMP production, 0.01-100 nM analogue, room temperature 30 minutes, hPTH(1-34) = 1.00.
T1 construct: a mouse cranial bone-derived osteoblast-like cell strain, MC3T3-EI cells, cultivated on a 96-well multiplate; endogenous in cells; host or cells: MC3T3-E1 mouse osteoblast-like cells
T1 sequence (P41593 27-591): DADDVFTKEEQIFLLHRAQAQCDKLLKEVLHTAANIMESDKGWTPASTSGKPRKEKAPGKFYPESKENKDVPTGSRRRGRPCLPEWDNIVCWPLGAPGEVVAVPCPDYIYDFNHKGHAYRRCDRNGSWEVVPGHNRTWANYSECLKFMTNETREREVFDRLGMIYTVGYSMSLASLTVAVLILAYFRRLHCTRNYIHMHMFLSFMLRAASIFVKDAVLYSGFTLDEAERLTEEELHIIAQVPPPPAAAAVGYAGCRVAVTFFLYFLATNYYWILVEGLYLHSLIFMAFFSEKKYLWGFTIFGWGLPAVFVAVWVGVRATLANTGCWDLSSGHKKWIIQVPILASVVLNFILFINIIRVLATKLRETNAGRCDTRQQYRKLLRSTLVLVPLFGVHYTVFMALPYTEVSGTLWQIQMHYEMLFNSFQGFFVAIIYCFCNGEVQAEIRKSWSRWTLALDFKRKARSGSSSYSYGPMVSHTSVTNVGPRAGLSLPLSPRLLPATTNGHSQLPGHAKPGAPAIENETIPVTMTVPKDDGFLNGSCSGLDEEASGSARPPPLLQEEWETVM
Type: cell-based
Method: The biological activity of the peptide analogues was evaluated by a modified version of the method reported by Shigeno et al. in The Journal of Biological Chemistry 263, 18369-18377 (1988). A culture solution (Hank's solution, containing 20 mM N-2-hydroxyethylpiperazine-N'-2-ethanesulfonic acid (HEPES), 0.1% bovine serum albumin and 0.5 mM isobutylmethyl-xanthine) containing 0.01, 0.1, 1, 10 or 100 nM analogue was added in an amount of 100 μto a mouse cranial bone-derived osteoblast-like cell strain, MC3T3-EI cells, cultivated on a 96-well multiplate (Nunclon, Nunc), followed by reaction at room temperature for 30 minutes. After addition of 100 μof 0.2N hydrochloric acid, the mixture was immersed in boiling water for 2.5 minutes, and cyclic adenosine monophosphate (cAMP) produced by a PTH receptor was extracted from the cells. The total cAMP in the culture solution and the cells was assayed using a commercial radioimmunoassay kit (cyclic AMP [^125 I] kit "Du Pont-Daiichi", Daiichi Kagaku Yakuhin).

Compound	Biological Activity (Represented by Relative Activity to hPTH(1-34))
CC[C@H](C)[C@H](NC(=O)[C@H](CCC(=O)O)NC(=O)[C@H](CO)NC(=O)[C@@H](NC(=O)[C@@H](N)CO)C(C)C)C(=O)N[C@@H](CCC(N)=O)C(=O)N[C@@H](CC(C)C)C(=O)N[C@@H](CCSC)C(=O)N[C@@H](Cc1c[nH]cn1)C(=O)N[C@@H](CC(N)=O)C(=O)N[C@@H](CC(C)C)C(=O)NCC(=O)N[C@@H](CCCCN)C(=O)N[C@@H](Cc1c[nH]cn1)C(=O)N[C@@H](CC(C)C)C(=O)N[C@@H](CC(N)=O)C(=O)N[C@@H](CO)C(=O)N[C@@H](CCSC)C(=O)N[C@@H](CCC(=O)O)C(=O)N[C@@H](CCCNC(=N)N)C(=O)N[C@H](C(=O)N[C@@H](CCC(=O)O)C(=O)N[C@@H](Cc1c[nH]c2ccccc12)C(=O)N[C@@H](CC(C)C)C(=O)N[C@@H](CCCNC(=N)N)C(=O)N[C@@H](CCCCN)C(=O)N[C@@H](CC(C)C)C(=O)N[C@@H](CC(C)C)C(=O)N[C@@H](CCC(N)=O)C(=O)N[C@@H](CC(=O)O)C(=O)N[C@H](C(=O)N[C@@H](Cc1c[nH]cn1)C(=O)N[C@@H](CC(N)=O)C(=O)N[C@@H](Cc1ccccc1)C(=O)O)C(C)C)C(C)C [[Leu^27] hPTH (1-34), (Leu^27)hPTH(1-34)]	1.2
CC[C@H](C)[C@H](NC(=O)[C@H](CCC(=O)O)NC(=O)[C@H](CO)NC(=O)[C@@H](NC(=O)[C@@H](N)CO)C(C)C)C(=O)N[C@@H](CCC(N)=O)C(=O)N[C@@H](CC(C)C)C(=O)N[C@@H](CCSC)C(=O)N[C@@H](Cc1c[nH]cn1)C(=O)N[C@@H](CC(N)=O)C(=O)N[C@@H](CC(C)C)C(=O)NCC(=O)N[C@@H](CCCCN)C(=O)N[C@@H](Cc1c[nH]cn1)C(=O)N[C@@H](CC(C)C)C(=O)N[C@@H](CC(N)=O)C(=O)N[C@@H](CO)C(=O)N[C@@H](CCSC)C(=O)N[C@@H](CCC(=O)O)C(=O)N[C@@H](CCCNC(=N)N)C(=O)N[C@H](C(=O)N[C@@H](CCC(=O)O)C(=O)N[C@@H](Cc1c[nH]c2ccccc12)C(=O)N[C@@H](CC(C)C)C(=O)N[C@@H](CCCNC(=N)N)C(=O)N[C@@H](CCCCN)C(=O)N[C@@H](CCCCN)C(=O)N[C@@H](CC(C)C)C(=O)N[C@@H](CCC(N)=O)C(=O)N[C@@H](CC(=O)O)C(=O)N[C@H](C(=O)N[C@@H](Cc1c[nH]cn1)C(=O)N[C@@H](CC(N)=O)C(=O)N[C@@H](Cc1ccccc1)C(=O)O)C(C)C)C(C)C [hPTH (1-34), hPTH(1-34), reference compound]	1.00
CC[C@H](C)[C@H](NC(=O)[C@H](CCC(=O)O)NC(=O)[C@H](CO)NC(=O)[C@@H](NC(=O)C(C)(C)N)C(C)C)C(=O)N[C@@H](CCC(N)=O)C(=O)N[C@@H](CC(C)C)C(=O)N[C@@H](CCSC)C(=O)N[C@@H](Cc1c[nH]cn1)C(=O)N[C@@H](CC(N)=O)C(=O)N[C@@H](CC(C)C)C(=O)NCC(=O)N[C@@H](CCCCN)C(=O)N[C@@H](Cc1c[nH]cn1)C(=O)N[C@@H](CC(C)C)C(=O)N[C@@H](CC(N)=O)C(=O)N[C@@H](CO)C(=O)N[C@@H](CCSC)C(=O)N[C@@H](CCC(=O)O)C(=O)N[C@@H](CCCNC(=N)N)C(=O)N[C@H](C(=O)N[C@@H](CCC(=O)O)C(=O)N[C@@H](Cc1c[nH]c2ccccc12)C(=O)N[C@@H](CC(C)C)C(=O)N[C@@H](CCCNC(=N)N)C(=O)N[C@@H](CCCCN)C(=O)N[C@@H](CCCCN)C(=O)N[C@@H](CC(C)C)C(=O)N[C@@H](CCC(N)=O)C(=O)N[C@@H](CC(=O)O)C(=O)N[C@H](C(=O)N[C@@H](Cc1c[nH]cn1)C(=O)N[C@@H](CC(N)=O)C(=O)N[C@@H](Cc1ccccc1)C(=O)O)C(C)C)C(C)C [[Aib^1] hPTH (1-34), (Aib^1)hPTH(1-34)]	1.7
CC[C@H](C)[C@H](NC(=O)[C@H](CCC(=O)O)NC(=O)[C@H](CO)NC(=O)[C@@H](NC(=O)[C@@H](N)CO)C(C)C)C(=O)N[C@@H](CCC(N)=O)C(=O)N[C@@H](CC(C)C)C(=O)N[C@@H](CCSC)C(=O)N[C@@H](Cc1c[nH]cn1)C(=O)N[C@@H](CC(N)=O)C(=O)N[C@@H](CC(C)C)C(=O)NCC(=O)N[C@@H](CCCCN)C(=O)N[C@@H](Cc1c[nH]cn1)C(=O)N[C@@H](CC(C)C)C(=O)N[C@@H](CC(N)=O)C(=O)N[C@@H](CO)C(=O)N[C@@H](CCSC)C(=O)N[C@@H](CCCNC(=N)N)C(=O)N[C@@H](CCCNC(=N)N)C(=O)N[C@@H](CCCNC(=N)N)C(=O)N[C@@H](CCC(=O)O)C(=O)N[C@@H](Cc1c(C2SCCS2)[nH]c2ccccc12)C(=O)N[C@@H](CC(C)C)C(=O)N[C@@H](CCCNC(=N)N)C(=O)N[C@@H](CCCCN)C(=O)N[C@@H](CCCCN)C(=O)N[C@@H](CC(C)C)C(=O)N[C@@H](CCC(N)=O)C(=O)N[C@@H](CC(=O)O)C(=O)N[C@H](C(=O)N[C@@H](Cc1c[nH]cn1)C(=O)N[C@@H](CC(N)=O)C(=O)N[C@@H](Cc1ccccc1)C(N)=O)C(C)C [(Arg^19,21,2-(1,3-dithiolan-2-yl)-Trp^23)hPTH(1-34)NH2] (H-SVSEIQLMHNLGKHLNSMRRRE[X1]LRKKLQDVHNF-NH2)	1.7
SVSEIQLLHNFGKHLNSLERVEWLRKKLQDVHNF-NH2 [[Leu^8, Phe^11, Leu^18] hPTH (1-34)NH2, (Leu^8, Phe^11,Leu^18)hPTH(1-34)NH2]	0.9
CC[C@H](C)[C@H](NC(=O)[C@H](CCC(=O)O)NC(=O)[C@H](CO)NC(=O)[C@@H](NC(=O)[C@@H](N)CO)C(C)C)C(=O)N[C@@H](CCC(N)=O)C(=O)N[C@@H](CC(C)C)C(=O)N[C@@H](CCSC)C(=O)N[C@@H](Cc1c[nH]cn1)C(=O)N[C@@H](CC(N)=O)C(=O)N[C@@H](CC(C)C)C(=O)NCC(=O)N[C@@H](CCCCN)C(=O)N[C@@H](Cc1c[nH]cn1)C(=O)N[C@@H](CC(C)C)C(=O)N[C@@H](CC(N)=O)C(=O)N[C@@H](CO)C(=O)N[C@@H](CC(C)C)C(=O)N[C@@H](CCC(=O)O)C(=O)N[C@@H](CCCNC(=N)N)C(=O)N[C@H](C(=O)N[C@@H](CCC(=O)O)C(=O)N[C@@H](Cc1c[nH]c2ccccc12)C(=O)N[C@@H](CC(C)C)C(=O)N[C@@H](CCCNC(=N)N)C(=O)N[C@@H](CCCCN)C(=O)N[C@@H](CCCCN)C(=O)N[C@@H](CC(C)C)C(=O)N[C@@H](CCC(N)=O)C(=O)N[C@@H](CC(=O)O)C(=O)N[C@H](C(=O)N[C@@H](Cc1c[nH]cn1)C(=O)N[C@@H](CC(N)=O)C(=O)N[C@@H](Cc1ccccc1)C(=O)O)C(C)C)C(C)C [[Leu^18] hPTH (1-34), (Leu^18)hPTH(1-34)]	0.4
CC[C@H](C)[C@H](NC(=O)[C@H](CCC(=O)O)NC(=O)[C@H](CO)NC(=O)[C@@H](NC(=O)[C@@H](N)CO)C(C)C)C(=O)N[C@@H](CCC(N)=O)C(=O)N[C@@H](CC(C)C)C(=O)N[C@@H](CCSC)C(=O)N[C@@H](Cc1c[nH]cn1)C(=O)N[C@@H](CC(N)=O)C(=O)N[C@@H](CC(C)C)C(=O)N[C@H](CO)C(=O)N[C@@H](CCCCN)C(=O)N[C@@H](Cc1c[nH]cn1)C(=O)N[C@@H](CC(C)C)C(=O)N[C@@H](CC(N)=O)C(=O)N[C@@H](CO)C(=O)N[C@@H](CCSC)C(=O)N[C@@H](CCC(=O)O)C(=O)N[C@@H](CCCNC(=N)N)C(=O)N[C@H](C(=O)N[C@@H](CCC(=O)O)C(=O)N[C@@H](Cc1c[nH]c2ccccc12)C(=O)N[C@@H](CC(C)C)C(=O)N[C@@H](CCCNC(=N)N)C(=O)N[C@@H](CCCCN)C(=O)N[C@@H](CCCCN)C(=O)N[C@@H](CC(C)C)C(=O)N[C@@H](CCC(N)=O)C(=O)N[C@@H](CC(=O)O)C(=O)N[C@H](C(=O)N[C@@H](Cc1c[nH]cn1)C(=O)N[C@@H](CC(N)=O)C(=O)N[C@@H](Cc1ccccc1)C(N)=O)C(C)C)C(C)C [[D-Ser^12] hPTH (1-34)NH2, (D-Ser^12)hPTH(1-34)NH2]	0.8
(Arg^19,21)hPTH(1-34)NH2 [[Arg^13, 21] hPTH (1-34)NH2]	0.9

Same assay, conditions: human PTH (1-34) added as a standard, 0.01-100 nM

Compound	cAMP production of the standard
CC[C@H](C)[C@H](NC(=O)[C@H](CCC(=O)O)NC(=O)[C@H](CO)NC(=O)[C@@H](NC(=O)[C@@H](N)CO)C(C)C)C(=O)N[C@@H](CCC(N)=O)C(=O)N[C@@H](CC(C)C)C(=O)N[C@@H](CCSC)C(=O)N[C@@H](Cc1c[nH]cn1)C(=O)N[C@@H](CC(N)=O)C(=O)N[C@@H](CC(C)C)C(=O)NCC(=O)N[C@@H](CCCCN)C(=O)N[C@@H](Cc1c[nH]cn1)C(=O)N[C@@H](CC(C)C)C(=O)N[C@@H](CC(N)=O)C(=O)N[C@@H](CO)C(=O)N[C@@H](CCSC)C(=O)N[C@@H](CCC(=O)O)C(=O)N[C@@H](CCCNC(=N)N)C(=O)N[C@H](C(=O)N[C@@H](CCC(=O)O)C(=O)N[C@@H](Cc1c[nH]c2ccccc12)C(=O)N[C@@H](CC(C)C)C(=O)N[C@@H](CCCNC(=N)N)C(=O)N[C@@H](CCCCN)C(=O)N[C@@H](CCCCN)C(=O)N[C@@H](CC(C)C)C(=O)N[C@@H](CCC(N)=O)C(=O)N[C@@H](CC(=O)O)C(=O)N[C@H](C(=O)N[C@@H](Cc1c[nH]cn1)C(=O)N[C@@H](CC(N)=O)C(=O)N[C@@H](Cc1ccccc1)C(=O)O)C(C)C)C(C)C [hPTH (1-34), hPTH(1-34), reference compound]	increase in cAMP production depending on the concentration
